Measured values reported in patent US9920069B2, “Compounds for treatment of fluoroquinolone-resistant bacteria” (The Board of Trustees of the University of Illinois, priority 2014, dated 2018).
In brackets after ≈: the same amount, converted by molar mass. Like-named read-outs stand apart in the source and are kept apart here.

Tests used:
VRE clinical isolates = assay: Panel of VRE clinical isolates (FIG. 2B); assay type: cell-based, Enterococcus; settings: n=22, in words
E. coli MG1655 = assay: microbe, parasite or virus in culture; assay type: cell-based; settings: Escherichia coli, gyrA none, parC none
Experimental: (§1) E. coli MG1655 and the ΔAcrB strain were obtained from Prof. Cari Vanderpool at UIUC.
(§2) Susceptibility testing was performed in triplicate using the microdilution broth method as outlined by the Clinical and Laboratory Standards Institute CLSI^52. MH broth was used.

[1] = Pharmacokinetic assessment, serum by HPLC; assay type: in vivo, C57BL/6 mice; settings: mouse serum
Experimental: FIG. 13. Pharmacokinetic analysis of DNM, DNM-2, and DNM-3. C57/BL6 mice were treated with 50 mg kg^−1 DNM, DNM-2, or DNM-3 via oral gavage. After the indicated time points (15, 30, 60, 120, 240, and 480 min), mice were sacrificed and the serum concentrations of DNM, DNM-2, and DNM-3 was determined by HPLC.
The animal studies (PK, in vivo toxicity and in vivo efficacy) were carried out in strict accordance with the recommendations in the Guide for the Care and Use of Laboratory Animals of the National Institutes of Health. […] In these studies, 10-12 week old female C57BL/6 mice purchased from Charles River were used. DNM, DNM-2, and DNM-3 were formulated as slurries at 8.3 mg mL^−1 in 25% Cremophor RH40/water (v/v). Before beginning the pharmacokinetic assessment, mice were first tested for their ability to tolerate the DNM, DNM-2, and DNM-3 at 50 mg kg^−1 (p.o.). […] At specified time points, mice were sacrificed and blood was collected, centrifuged, and the serum was frozen at −80° C. until analysis. The proteins in a 50 μL aliquot of serum were precipitated by the addition of 50 μL of acetonitrile and the sample was centrifuged to remove the proteins. Serum concentrations of DNM, DNM-2, and DNM-3 were determined by HPLC. PK parameters were determined using GraphPad Prism Version 5.00 for Windows.

physchem = settings: pH 7.4 PBS; three replicates ± SEM
Experimental: Enough PBS was added to make a 1 mg/mL solution. Compounds were then assessed by LC-MS and compared to a calibration curve to determine the solubility. […] Data shown is from three independent replicates±SEM. […] Between DMSO additions, the vial was vortexed and sonicated.
The compound was vortexed for ˜30 seconds before being placed into a bath sonicator (Cole Parmer, ultrasonic cleaner) for 1 h. […] The tubes were vortexed again for 30 s before being centrifuged at maximum speed (13,000×g) for 10 minutes. The supernatant was then filtered through a 0.22 μm syringe filter (Millipore Millex MP). […] Three independent replicates of each compound were performed. A calibration curve for each compound was generated from 1-400 μM by dissolving the compound in DMSO and making dilutions of the stock in DMSO. […] The concentration of the samples was calculated based on the calibration curves.

[2] = test system: VRE clinical isolate C28036; assay: microbe, parasite or virus in culture; assay type: cell-based, Ent. Spp.; settings: Enterococcus
Experimental: QRDR mutations were determined as described in the text using primers (primer sequences can be found in Table 7).
as §2

[3] = In vivo toxicity assessment, 10 days; set-up: species or system BALB/c mice; settings: 50 mg kg^−1 oral once-a-day 10 days; in words
Experimental: Toxicity was assessed as previously described^56. Specifically, heparinized whole blood was collected for assessment of total white blood cells, neutrophils, lymphocytes, hematocrit, platelets, creatinine, blood urea, nitrogen, albumin, alanine aminotransferase, alkaline phosphatase, and total bilirubin. Mice were euthanized by overdosing with Ketamine/Xylazine, and heart, lung, kidney, liver, spleen, gastrointestinal tract and brain were collected for histopathology. Tissue samples were fixed 24 hours in 10% neutral buffered formalin, processed, and paraffin embedded, sectioned (5 μm thickness) and stained with hematoxylin and eosin. All slides were systematically evaluated by a single board certified veterinary anatomic pathologist (SL) for evidence of acute or chronic inflammation and toxicity. All lesions were characterized, recorded, and scored for severity (minimal=1, mild=2, moderate=3, and severe=4).

PA1586 = assay: MIC, microdilution broth; assay type: cell-based, P. aeruginosa; settings: Pseudomonas aeruginosa
Experimental: as §1, §2

in vivo = settings: female, C57BL/6, mouse, po
Experimental: As a prelude to exploring in vivo efficacy, the toxicity and pharmacokinetic profile of DNM and key derivatives was evaluated.
The animal studies (PK, in vivo toxicity and in vivo efficacy) were carried out in strict accordance with the recommendations in the Guide for the Care and Use of Laboratory Animals of the National Institutes of Health. […] In these studies, 10-12 week old female C57BL/6 mice purchased from Charles River were used. DNM, DNM-2, and DNM-3 were formulated as slurries at 8.3 mg mL^−1 in 25% Cremophor RH40/water (v/v). Before beginning the pharmacokinetic assessment, mice were first tested for their ability to tolerate the DNM, DNM-2, and DNM-3 at 50 mg kg^−1 (p.o.). […] . At specified time points, mice were sacrificed and blood was collected, centrifuged, and the serum was frozen at −80° C. until analysis. The proteins in a 50 μL aliquot of serum were precipitated by the addition of 50 μL of acetonitrile and the sample was centrifuged to remove the proteins. Serum concentrations of DNM, DNM-2, and DNM-3 were determined by HPLC. PK parameters were determined using GraphPad Prism Version 5.00 for Windows.

[4] = test system: S. aureus ATCC 29213 derived strains; assay: Resistant mutant generation (resistance frequency); settings: development of DNM resistance in high level CIP resistant strains
Experimental: Agar plates (15 cm) were prepared containing MH broth and antibacterial compounds at concentrations detailed in the FIG. 10. 40 mL of an overnight bacterial culture was centrifuged at 3000×g for 10 min and resuspended in 0.4 mL of sterile PBS. Plates were inoculated with 100 μL of bacteria in PBS by spreading with beads. […] To determine the number of viable colonies spread onto each plate, dilutions of the overnight culture in sterile PBS were spread onto nonselective MH agar plates and plates were incubated overnight at 37° C. before counting colonies.

[5] = test system: VRE harboring the S83I mutation (GyrA); assay: microbe, parasite or virus in culture; assay type: cell-based; settings: Enterococcus

SMILES | sensitivity of VRE clinical isolates (VRE clinical isolates) | MIC (E. coli MG1655) [µg/mL] | AUC ([1]; 50 mg kg^−1 oral dose) [ng·h/mL] | Cmax / peak serum concentration ([1]; 50 mg kg^−1 oral dose) [ng/mL] | Cmax ([1]; 50 mg kg^−1 oral dose, read-out: Cmax / peak serum concentration) [µM] | AUC ([1]; 50 mg kg^−1 oral gavage) [ng·h/mL] | Cmax ([1]; 50 mg kg^−1 oral gavage) [ng/mL] | Tmax ([1]; 50 mg kg^−1 oral gavage) [h] | t1/2 ([1]; 50 mg kg^−1 oral gavage) [h] | Solubility in pH 7.4 PBS (physchem) [μM] | MIC [2] [µg/mL] | hematological and non-hematological toxicity [3] | MIC (PA1586) [µg/mL] | MTD (in vivo) [mg/kg] | resistance frequency [4] | MIC [5] [µg/mL]
CCn1c(=O)cc(C)c2cc3c(C)cc(=O)n4c3c(c21)OC4 [DNM-2] | sensitive | > 24 | 44000 | 12800 | 42.6 | 44000 | 12800 | 1.2 | 0.9 | 121 | 0.5 (≈ 1.69 µM) | No clinically significant evidence for myelosuppression, renal injury, or hepatic toxicity | > 24 | > 50 | – | –
Cc1cc(=O)n(C)c2c3c4c(cc12)c(C)cc(=O)n4CO3 [DNM, deoxynybomycin] | sensitive | – | – | – | – | – | – | – | – | 9 | 0.25 (≈ 0.886 µM) | – | > 4 | > 50 | 1×10^−10 to 7×10^−10 | 0.125 to 1 (≈ 0.443 to 3.54 µM)
